Source: patent publication US20250114347A1, “TOPICAL NALTREXONE AS A TREATMENT FOR DRY EYE” (The Penn State Research Foundation, priority 2022, published 2025)

Assays:
normal rat = test: Schirmer test (tear production) in a normal rat, topical drops; format: in vivo; conditions: 3% NTX solution, topical drop
Protocol: (§1) Four solutions were prepared with 0%, 0.5%, 1.5%, and 3% naltrexone (NTX). Previous formulations contained 0.003% NTX.
(§2) Experimental paradigm: 1-4 rats were tested with each dose (mixture of male and females). Left eyes only were treated twice daily with one drop. • Schirmer test for baseline (to determine tear production and establish dry eye) • Add drop at 0800 and again at 1700 hr (4:40-6:00 pm) • Take Schirmer test 24 hr later • Add drop at 0800 and again at 1700 hr (4th drop) • Take Schirmer test 48 hr after first drop

diabetic rats = test: Schirmer test (tear production) in hyperglycemic rats with dry eye, topical drops twice daily; format: in vivo, Sprague-Dawley rats
Protocol: as §1
Adult male and female Sprague-Dawley rats were rendered hyperglycemic for 6-8 weeks, with blood glucose levels >600 mg/dL. Age at time of testing was 15-18 weeks of age.
as §2

O=C1CC[C@@]2(O)[C@H]3Cc4ccc(O)c5c4[C@@]2(CCN3CC2CC2)[C@H]1O5 [NTX, 17-(cyclopropylmethyl)-4,5α-epoxy-3,14-dihydroxymorphinan-6-one] was tested, and the “effect on dry eye in a normal rat” value (normal rat) was “caused dry eye”, the “reversal of dry eye” value (diabetic rats; 0.5% NTX solution, one drop twice daily, Schirmer test at 24 and 48 hr) was “reversed dry eye” and the “relative effectiveness among the tested concentrations” value (diabetic rats; 1.5% NTX solution compared with 0.5% and 3%) was “most effective”. For the same compound, the “reversal of dry eye” value (diabetic rats; 1.5% NTX solution, one drop twice daily, Schirmer test at 24 and 48 hr) was “reversed dry eye”, the “reversal of dry eye” value (diabetic rats; 3% NTX solution left at RT for 3 weeks (some decomposition of the NTX)) was “effective at reversing dry eye” and the “reversal of dry eye” value (diabetic rats; 3% NTX solution, both male and female, one drop twice daily, Schirmer test at 24 and 48 hr) was “did not reverse dry eye”.
